In experiment [1] the test system is Leucine-rich repeat serine/threonine-protein kinase 2 (Homo sapiens), Q5S007 [G2019S]. Nature of the experiment: (§1) Selectivity interaction (ProQinase) EUB0000171b LRRK2.
Experiment [2] deals with Leucine-rich repeat serine/threonine-protein kinase 2 (Homo sapiens), Q5S007 [I2020T]. The description is as §1.
Experiment [3] relates to Leucine-rich repeat serine/threonine-protein kinase 2 (Homo sapiens), Q5S007 [R1441C]. Described as §1.
Experiment [4] has as its target Leucine-rich repeat serine/threonine-protein kinase 2 (Homo sapiens, UniProt Q5S007). The description is as §1.
In experiment [5] the target is Tyrosine-protein kinase JAK1 (Homo sapiens, UniProt P23458). Particulars: at 10 µM.
Experiment [6] concerns the target T1, Protein kinase C iota type (Homo sapiens) (UniProt P41743).
T1 sequence (whole entry): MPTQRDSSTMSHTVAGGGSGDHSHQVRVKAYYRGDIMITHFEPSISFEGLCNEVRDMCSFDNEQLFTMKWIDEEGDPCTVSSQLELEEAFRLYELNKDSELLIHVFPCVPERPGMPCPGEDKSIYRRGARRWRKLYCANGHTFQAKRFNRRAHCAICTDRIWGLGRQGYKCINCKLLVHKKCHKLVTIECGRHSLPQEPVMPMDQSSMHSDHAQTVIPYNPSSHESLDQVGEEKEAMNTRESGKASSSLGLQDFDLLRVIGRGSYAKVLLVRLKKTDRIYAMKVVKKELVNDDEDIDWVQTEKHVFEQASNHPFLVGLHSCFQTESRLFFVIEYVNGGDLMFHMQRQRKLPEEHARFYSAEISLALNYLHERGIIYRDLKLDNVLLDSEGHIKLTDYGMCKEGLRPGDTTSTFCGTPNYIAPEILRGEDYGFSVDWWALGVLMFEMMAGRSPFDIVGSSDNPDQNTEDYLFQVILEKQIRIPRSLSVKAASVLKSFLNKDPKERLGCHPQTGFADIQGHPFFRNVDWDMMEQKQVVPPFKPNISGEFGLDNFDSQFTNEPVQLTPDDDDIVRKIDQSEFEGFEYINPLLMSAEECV
Nature of the experiment: Selectivity interaction (Millipore kinase profiler) EUB0000124b PRKCI. Particulars: at 10 µM.

Experiment [7] has as its target T2, Serine/threonine-protein kinase tousled-like 1 (Homo sapiens) (UniProt Q9UKI8).
T2 sequence (whole entry): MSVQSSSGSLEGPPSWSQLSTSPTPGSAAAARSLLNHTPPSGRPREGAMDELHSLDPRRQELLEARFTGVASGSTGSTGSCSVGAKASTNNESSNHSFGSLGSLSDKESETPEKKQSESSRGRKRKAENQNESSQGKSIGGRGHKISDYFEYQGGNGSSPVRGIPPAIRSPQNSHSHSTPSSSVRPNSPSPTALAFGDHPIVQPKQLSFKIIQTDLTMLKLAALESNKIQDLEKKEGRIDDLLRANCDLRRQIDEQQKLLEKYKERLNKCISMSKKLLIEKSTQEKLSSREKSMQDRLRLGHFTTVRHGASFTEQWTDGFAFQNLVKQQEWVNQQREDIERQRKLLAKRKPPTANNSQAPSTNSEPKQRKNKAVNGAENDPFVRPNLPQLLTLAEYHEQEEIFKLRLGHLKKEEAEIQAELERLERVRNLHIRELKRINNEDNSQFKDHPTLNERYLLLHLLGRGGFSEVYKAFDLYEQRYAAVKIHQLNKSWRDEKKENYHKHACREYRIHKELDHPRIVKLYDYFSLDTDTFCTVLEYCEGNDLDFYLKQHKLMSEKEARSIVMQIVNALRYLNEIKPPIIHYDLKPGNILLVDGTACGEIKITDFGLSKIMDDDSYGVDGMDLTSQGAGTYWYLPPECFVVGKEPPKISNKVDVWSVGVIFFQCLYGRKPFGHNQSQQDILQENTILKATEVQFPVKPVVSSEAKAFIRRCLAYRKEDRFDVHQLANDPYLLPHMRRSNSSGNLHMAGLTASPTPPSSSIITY
In words: Selectivity interaction (KinomeScan (DiscoverX)) EUB0000092b TLK1. Particulars: at 10 µM.

Experiment [8] concerns the target SRSF protein kinase 2 (Homo sapiens) (UniProt P78362). In words: Selectivity interaction (KinomeScan (DiscoverX)) EUB0001049a SRPK2. Particulars: at 1 µM.
The target of experiment [9] is Mitogen-activated protein kinase kinase kinase 11 (Homo sapiens) (UniProt Q16584). In words: Selectivity interaction (Kinase panel (Eurofins)) EUB0001564a MAP3K11. Particulars: at 1 µM.
For experiment [10], the target named is Serine/threonine-protein kinase SIK3 (Homo sapiens) (UniProt Q9Y2K2). Nature of the experiment: Selectivity interaction (KinomeScan (DiscoverX)) EUB0000045b SIK3.
Sequence of Serine/threonine-protein kinase SIK3 (Homo sapiens) (Q9Y2K2 whole entry, looked up): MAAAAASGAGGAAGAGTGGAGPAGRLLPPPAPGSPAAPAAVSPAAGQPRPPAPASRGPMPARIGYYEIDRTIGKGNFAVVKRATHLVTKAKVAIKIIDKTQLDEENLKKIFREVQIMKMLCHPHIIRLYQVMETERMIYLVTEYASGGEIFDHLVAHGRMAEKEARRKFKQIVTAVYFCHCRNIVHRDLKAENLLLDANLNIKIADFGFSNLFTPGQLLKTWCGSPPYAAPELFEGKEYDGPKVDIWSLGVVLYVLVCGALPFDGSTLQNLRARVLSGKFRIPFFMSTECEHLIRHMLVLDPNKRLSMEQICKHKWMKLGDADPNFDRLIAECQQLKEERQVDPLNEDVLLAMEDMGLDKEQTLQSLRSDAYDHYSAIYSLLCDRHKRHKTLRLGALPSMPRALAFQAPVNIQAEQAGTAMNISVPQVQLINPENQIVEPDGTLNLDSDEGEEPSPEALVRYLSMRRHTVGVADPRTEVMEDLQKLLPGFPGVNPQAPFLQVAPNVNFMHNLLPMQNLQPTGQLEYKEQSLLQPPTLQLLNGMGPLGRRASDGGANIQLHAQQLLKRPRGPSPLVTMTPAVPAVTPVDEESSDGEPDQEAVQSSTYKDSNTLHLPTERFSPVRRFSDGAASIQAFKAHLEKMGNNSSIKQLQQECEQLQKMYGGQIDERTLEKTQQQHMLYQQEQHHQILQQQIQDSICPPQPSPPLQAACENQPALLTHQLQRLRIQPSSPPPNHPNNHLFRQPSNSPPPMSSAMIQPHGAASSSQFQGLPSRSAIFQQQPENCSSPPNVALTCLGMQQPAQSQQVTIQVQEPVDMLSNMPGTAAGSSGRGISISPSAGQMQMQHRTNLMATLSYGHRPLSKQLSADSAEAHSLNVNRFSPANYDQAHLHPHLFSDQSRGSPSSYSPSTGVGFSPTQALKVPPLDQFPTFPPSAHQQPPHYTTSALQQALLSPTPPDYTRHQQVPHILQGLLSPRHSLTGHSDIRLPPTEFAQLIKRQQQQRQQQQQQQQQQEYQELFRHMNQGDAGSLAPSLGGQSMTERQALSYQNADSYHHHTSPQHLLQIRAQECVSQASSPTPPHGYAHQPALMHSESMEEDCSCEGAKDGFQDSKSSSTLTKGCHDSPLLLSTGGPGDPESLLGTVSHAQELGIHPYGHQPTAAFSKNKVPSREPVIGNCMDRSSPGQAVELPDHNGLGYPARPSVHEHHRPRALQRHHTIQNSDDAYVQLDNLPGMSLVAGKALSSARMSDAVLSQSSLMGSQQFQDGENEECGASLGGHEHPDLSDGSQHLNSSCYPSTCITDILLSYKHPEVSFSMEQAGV
Experiment [11] deals with Serine/threonine-protein kinase SIK2 (Homo sapiens) (UniProt Q9H0K1). In words: Selectivity interaction (KinomeScan (DiscoverX)) EUB0000666a SIK2. Conditions: at 10 µM.
Experiment [12] deals with DNA (cytosine-5)-methyltransferase 1 (Homo sapiens) (UniProt P26358). Particulars: at 1 µM.
In experiment [13] the target is Vascular endothelial growth factor receptor 3 (Homo sapiens, UniProt P35916). In words: Selectivity interaction (SelectScreen profiling (Invitrogen)) EUB0000607a FLT4. Conditions: at 2 µM.
In experiment [14] the target is Serine/threonine-protein kinase PAK 6 (Homo sapiens) (UniProt Q9NQU5). Nature of the experiment: Selectivity interaction (Kinase panel (Invitrogen)) EUB0000639a PAK6. Conditions: at 200 nM.

Experimental findings from ChEMBL document CHEMBL5465560, “Selectivity Literature for EUbOPEN Chemogenomic Library” (2024) are described below.

Some results are limits rather than exact numbers.

Sequence of Leucine-rich repeat serine/threonine-protein kinase 2 (Homo sapiens), Q5S007 [R1441C] (Q5S007 whole entry R1441C): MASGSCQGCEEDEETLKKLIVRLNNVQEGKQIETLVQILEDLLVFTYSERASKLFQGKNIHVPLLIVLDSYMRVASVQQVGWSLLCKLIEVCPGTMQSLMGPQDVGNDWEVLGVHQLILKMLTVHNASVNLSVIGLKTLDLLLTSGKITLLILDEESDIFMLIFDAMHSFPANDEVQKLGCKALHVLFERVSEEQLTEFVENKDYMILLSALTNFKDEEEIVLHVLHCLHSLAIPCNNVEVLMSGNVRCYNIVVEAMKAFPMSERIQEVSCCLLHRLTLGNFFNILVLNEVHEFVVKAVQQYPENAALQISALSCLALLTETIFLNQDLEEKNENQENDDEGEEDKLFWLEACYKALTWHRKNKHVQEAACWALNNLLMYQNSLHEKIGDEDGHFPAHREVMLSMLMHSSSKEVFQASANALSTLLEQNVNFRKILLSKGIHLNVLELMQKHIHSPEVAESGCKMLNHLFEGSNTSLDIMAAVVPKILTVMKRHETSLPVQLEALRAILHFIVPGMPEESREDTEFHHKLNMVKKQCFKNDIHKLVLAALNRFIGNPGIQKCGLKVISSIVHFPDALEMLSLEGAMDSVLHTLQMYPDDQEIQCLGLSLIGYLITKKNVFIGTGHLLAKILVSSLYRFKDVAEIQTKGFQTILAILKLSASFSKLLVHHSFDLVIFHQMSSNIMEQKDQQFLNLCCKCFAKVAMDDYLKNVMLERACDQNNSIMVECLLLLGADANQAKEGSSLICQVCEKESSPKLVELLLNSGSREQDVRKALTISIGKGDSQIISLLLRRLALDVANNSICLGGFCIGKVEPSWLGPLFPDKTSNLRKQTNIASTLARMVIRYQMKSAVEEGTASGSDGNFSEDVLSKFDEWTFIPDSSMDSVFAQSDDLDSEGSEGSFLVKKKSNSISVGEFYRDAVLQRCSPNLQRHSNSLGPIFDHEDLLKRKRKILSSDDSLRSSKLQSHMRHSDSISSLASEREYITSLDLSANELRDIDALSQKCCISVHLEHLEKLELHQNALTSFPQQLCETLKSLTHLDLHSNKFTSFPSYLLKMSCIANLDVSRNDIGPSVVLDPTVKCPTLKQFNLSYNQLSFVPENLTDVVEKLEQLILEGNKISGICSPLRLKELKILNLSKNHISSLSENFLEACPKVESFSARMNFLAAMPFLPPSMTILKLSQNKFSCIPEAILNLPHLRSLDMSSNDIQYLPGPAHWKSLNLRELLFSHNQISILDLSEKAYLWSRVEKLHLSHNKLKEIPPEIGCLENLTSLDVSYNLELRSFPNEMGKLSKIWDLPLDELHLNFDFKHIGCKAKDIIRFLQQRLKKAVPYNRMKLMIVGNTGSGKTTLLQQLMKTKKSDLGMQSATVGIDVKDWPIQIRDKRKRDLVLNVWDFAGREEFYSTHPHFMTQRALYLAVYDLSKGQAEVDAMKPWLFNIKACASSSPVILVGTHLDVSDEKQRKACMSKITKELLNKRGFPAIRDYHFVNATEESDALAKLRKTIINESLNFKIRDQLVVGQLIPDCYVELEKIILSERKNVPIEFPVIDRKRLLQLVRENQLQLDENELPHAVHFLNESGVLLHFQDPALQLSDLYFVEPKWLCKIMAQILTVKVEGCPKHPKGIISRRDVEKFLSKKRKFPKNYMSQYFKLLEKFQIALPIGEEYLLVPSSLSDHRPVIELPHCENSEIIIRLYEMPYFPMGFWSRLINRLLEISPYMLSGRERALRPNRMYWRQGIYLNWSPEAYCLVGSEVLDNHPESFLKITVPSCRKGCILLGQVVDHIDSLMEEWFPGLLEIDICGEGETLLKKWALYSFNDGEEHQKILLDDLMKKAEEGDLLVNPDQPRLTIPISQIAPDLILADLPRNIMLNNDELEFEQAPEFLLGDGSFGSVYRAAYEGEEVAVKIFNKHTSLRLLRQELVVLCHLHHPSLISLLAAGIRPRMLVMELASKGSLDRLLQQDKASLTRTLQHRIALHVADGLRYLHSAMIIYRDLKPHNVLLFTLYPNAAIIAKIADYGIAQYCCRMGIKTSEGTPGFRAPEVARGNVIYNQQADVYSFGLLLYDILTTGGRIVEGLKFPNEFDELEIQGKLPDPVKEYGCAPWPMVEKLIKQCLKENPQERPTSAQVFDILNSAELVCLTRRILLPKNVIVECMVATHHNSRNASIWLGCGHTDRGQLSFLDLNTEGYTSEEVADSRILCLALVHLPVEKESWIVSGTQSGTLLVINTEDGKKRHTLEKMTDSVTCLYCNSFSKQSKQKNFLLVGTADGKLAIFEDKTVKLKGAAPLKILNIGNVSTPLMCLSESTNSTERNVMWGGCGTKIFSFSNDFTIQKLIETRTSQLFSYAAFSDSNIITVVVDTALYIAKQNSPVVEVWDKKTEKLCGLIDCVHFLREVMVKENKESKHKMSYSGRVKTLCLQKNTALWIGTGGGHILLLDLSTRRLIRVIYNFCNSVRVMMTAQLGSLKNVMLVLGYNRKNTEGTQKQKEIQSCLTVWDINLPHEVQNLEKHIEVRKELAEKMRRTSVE
Sequence of Leucine-rich repeat serine/threonine-protein kinase 2 (Homo sapiens), Q5S007 [I2020T] (Q5S007 whole entry I2020T): as the sequence (Q5S007 whole entry R1441C) above, with C1441R, I2020T counted along it
Sequence of Leucine-rich repeat serine/threonine-protein kinase 2 (Q5S007 whole entry): as the sequence (Q5S007 whole entry R1441C) above, with C1441R counted along it
Sequence of Leucine-rich repeat serine/threonine-protein kinase 2 (Homo sapiens), Q5S007 [G2019S] (Q5S007 whole entry G2019S): as the sequence (Q5S007 whole entry R1441C) above, with C1441R, G2019S counted along it
Sequence of SRSF protein kinase 2 (Homo sapiens) (P78362 whole entry, looked up): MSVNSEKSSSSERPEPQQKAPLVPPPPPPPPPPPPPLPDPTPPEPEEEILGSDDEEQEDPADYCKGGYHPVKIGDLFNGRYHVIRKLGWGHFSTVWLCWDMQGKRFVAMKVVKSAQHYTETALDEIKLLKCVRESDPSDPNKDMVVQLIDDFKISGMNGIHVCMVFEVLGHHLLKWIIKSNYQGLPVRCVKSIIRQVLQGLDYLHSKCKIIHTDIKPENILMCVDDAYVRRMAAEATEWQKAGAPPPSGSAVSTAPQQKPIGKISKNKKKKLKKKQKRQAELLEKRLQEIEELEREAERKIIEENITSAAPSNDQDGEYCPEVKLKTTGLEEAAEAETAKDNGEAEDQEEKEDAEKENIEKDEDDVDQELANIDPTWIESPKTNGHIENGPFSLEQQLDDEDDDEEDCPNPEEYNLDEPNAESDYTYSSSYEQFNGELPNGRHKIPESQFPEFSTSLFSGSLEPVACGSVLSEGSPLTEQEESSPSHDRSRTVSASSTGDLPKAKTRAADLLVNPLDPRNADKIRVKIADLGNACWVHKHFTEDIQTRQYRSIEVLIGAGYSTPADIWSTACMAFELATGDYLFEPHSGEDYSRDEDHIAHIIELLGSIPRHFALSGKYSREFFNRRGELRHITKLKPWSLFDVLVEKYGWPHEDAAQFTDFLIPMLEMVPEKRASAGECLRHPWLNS

In the case of `C=CC(=O)Nc1cccc(C(=O)Nc2ccc(Nc3cc(-c4[nH]c(SC)nc4C)ccn3)cc2)c1`, the % of control stood at 72% in experiment [1] (at 1 µM); 52% in [1] (at 5 µM); 71% in experiment [2] (at 1 µM); 49% in experiment [2] (at 5 µM); 80% in experiment [3] (at 1 µM); 51% in experiment [3] (at 5 µM). The values for the % of control in experiment [4] (at 1 µM) and in [4] (at 5 µM) were 77% and 47%, respectively.

In experiment [5], `CCN(CC)CCCCNc1ncc2cc(-c3cc(OC)cc(OC)c3)c(NC(=O)NC(C)(C)C)nc2n1` had a % of control of 100%.

For the molecule `CC(=O)Nc1cccc(-n2c(=O)n(C3CC3)c(=O)c3c(Nc4ccc(I)cc4F)n(C)c(=O)c(C)c32)c1`, the % of control in experiment [6] is 83%.

Regarding `CCC(=O)N1CCN(c2ccc(-n3c(=O)ccc4cnc5ccc(-c6cnc7ccccc7c6)cc5c43)cc2C(F)(F)F)CC1`, the % of control in experiment [7] was 100%.

For `COc1cc(Nc2nc(C)cc(-c3cnn4nc(OC)ccc34)n2)cc(C(F)(F)F)c1`, in experiment [8], the % of control is 100%.

In experiment [9], `CC[C@@H](Nc1c(C#N)c(-c2ccc(-c3cccc(C)c3F)cc2)nc2cnccc12)C(=O)O` [BAY-091] yielded a % of inhibition of 21.1%.

Regarding `C=CC(=O)Nc1cc(-n2c(=O)ccc3cnc4ccc(-c5ccc(NS(C)(=O)=O)cc5)cc4c32)ccc1C`, the % of control in experiment [10] (at 1 µM) and in experiment [10] (at 10 µM) was 100% throughout.

In the case of `O=C(NOC[C@H](O)CO)c1ccc(F)c(F)c1Nc1ccc(I)cc1F`, in experiment [11], the % of control is 92%.

`CNCCN1CCC(c2cc(CN(C)C(=O)c3cccc(Oc4ccccc4)c3)ccn2)CC1`: in [12], the % activity was more than 85%.

As to `CNC(=O)Nc1ccc(-c2nc(N3CC4CCC(C3)O4)c3cnn(C4CCC5(CC4)OCCO5)c3n2)cc1`, the % of inhibition in experiment [13] came out at 4%.

The molecule `CC[C@@H]1[C@H](F)C(=O)N[C@@H]1COc1nccc2cc(C(N)=O)c(OC)cc12` [ZIMLOVISERTIB] yielded a % of inhibition in experiment [14] of 5.8%.
